Experimental findings from US6576780B1, “Hydroxyamidino derivatives useful as nitric oxide synthase inhibitors” (GD Searle & Company, priority 1996, dated 2003) are described below.

Each structure is given as a SMILES string. pIC50: −log10 of the molar value. Counter-ions that a name gives are not always drawn.

The target in test [1] is T1, rat brain constitutive NOS (rnNOS) (Rattus norvegicus, UniProt P29476).
T1 construct: was prepared from an extract of rat cerebellum; from tissue; host or cells: rat cerebellum
The test can be described thus: Citrulline assay for nitric oxide synthase, rnNOS. The test is classed as biochemical. The settings on record: partially purified enzyme from rat cerebellum. On the procedure: (§1) NOS activity was measured by monitoring the conversion of L-[2,3-^3H]-arginine to L-[2,3- H]-citrulline. Mouse inducible NOS (miNOS) was prepared from an extract of LPS-treated mouse RAW 264.7 cells and rat brain constitutive NOS (rnNOS) was prepared from an extract of rat cerebellum. Both preparations were partially purified by DEAE-Sepharose chromatography. Enzyme (10 μL) was added to 40 μL of 50 mM Tris (pH 7.6) and the reaction initiated by the addition of 50 μL of a solution containing 50 mM Tris (pH 7.6), 2.0 mg/mL bovine serum albumin, 2.0 mM DTT, 4.0 mM CaCl2, 20 μM FAD, 100 &M tetrahydrobiopterin, 2.0 mM NADPH and 60 μM L-arginine containing 0.9 μCi of L-[2,3-^3H]-arginine. For constitutive NOS, calmodulin was included at a final concentration of 40 nM. Following incubation at 37° C. for 15 minutes, the reaction was terminated by addition of 300 μL cold buffer containing 10 mM EGTA, 100 mM HEPES (pH 5.5) and 1.0 mM L-citrulline. The [^3H]-citrulline was separated by chromatography on Dowex 50W X-8 cation exchange resin and radioactivity quantified with a liquid scintillation counter.

Test [2] deals with T2, mouse inducible NOS (miNOS) (Mus musculus, UniProt P29477).
T2 construct: prepared from an extract of LPS-treated mouse RAW 264.7 cells; endogenous in cells; host or cells: LPS-treated mouse RAW 264.7 cells
The test can be described thus: Citrulline assay for nitric oxide synthase, miNOS. It counts as biochemical. The settings on record: partially purified enzyme from LPS-treated RAW 264.7 cells. As for the experimental part: as §1

The subject of test [3] is plasma nitrites induced by endotoxin (LPS). The test is described as follows: In vivo low-endotoxin (Low Dose LPS) assay. Also noted: species or system rat. The settings on record: rats, LPS i.p., plasma nitrites 5 hours post-treatment. On the procedure:
Rats were treated with an intraperitoneal injection of 10 mg/kg of endotoxin (LPS) with or without oral administration of the nitric oxide synthase inhibitors. Plasma nitrites were measured 5 hours post-treatment.

For test [4], the target named is recombinant human endothelial constitutive NOS (hecNOS) (Homo sapiens, UniProt P29474). The test is described as follows: Human in vitro enzyme data, hecNOS. The test is classed as biochemical.
For test [5], the target named is recombinant human neuronal constitutive NOS (hncNOS) (Homo sapiens, UniProt P29475). The test can be described thus: Human in vitro enzyme data, hncNOS. The test is classed as biochemical.
A further test relates to RAW 264.7 cells. The test is described as follows: Raw cell nitrite assay. It counts as cell-based. The following applies: Mus musculus, RAW264.7, cultured RAW 264.7 cells, LPS-induced. On the procedure:
RAW 264.7 cells are plated to confluency on a 96-well tissue culture plate grown overnight (17 h) in the presence of LPS to induce NOS. A row of 3-6 wells were left untreated and served as controls for subtraction of nonspecific background. The media was removed from each well and the cells are washed twice with Kreb-Ringers-Hepes (25 mM, pH 7.4) with 2 mg/ml glucose. The cells are then placed on ice and incubated with […] of buffer containing L-arginine (30 mM) +/− inhibitors for 1 h. The assay is initiated by warming the plate to 37° C. in a water bath for 1 h. Production of nitrite by intracellular iNOS is linear with time. To terminate the cellular assay, the plate of cells is placed on ice and the nitrite-containing buffer removed and analyzed for nitrite using a previously published fluorescent determination for nitrite. T. P. Misko et al, Analytical Biochemistry, 214, 11-16 (1993). All values are the average of triplicate wells and are compared to a background-subtracted induced set of cells (100% value).

For test [6], the target named is recombinant human inducible NOS (hiNOS) (Homo sapiens, UniProt P35228). The test can be described thus: Human in vitro enzyme data, hiNOS. It counts as biochemical.

For the compound `C/C(=N\O)NCCCC[C@H](N)C(=O)O` [Example 1, N^6-[1-(Hydroxyimino)ethyl]-L-lysine, Dihydrochloride], the pIC50 (as a rule, the IC50 on a negative log10 scale, so that one unit is a factor of ten) in test [1] is 2.83; in test [2], 4.11; in test [4], 2.83; in test [5], 3.04; in the test on RAW 264.7 cells, 4.55; in test [6], 3.81. Besides, the “Inhibition of LPS-induced plasma nitrite” value in test [3] (0.1 mg/kg/day p.o.) is on record as 0% inh; in test [3] (1 mg/kg/day p.o.), 54% inh; in test [3] (10 mg/kg/day p.o.), 97% inh.
